# Tested on: poacic acid-resistant mutant (SUR1)
# Test: Poacic acid-resistant mutant (PAr) with SNP in SUR1
# Format: cell-based, Saccharomyces cerevisiae
# Protocol: Agar containing 500 μg/mL poacic acid was inoculated with ˜1 million cells of yeast (control strain). After 1 wk, two colonies were found growing on the agar. Single-colony isolates were obtained and found to be resistant to poacic acid. For whole-genome sequencing, single-colony isolates of poacic acid-resistant mutant, the caspofungin-resistant mutant, and the control strain (WT) were grown in triplicate 200-μL cultures and pooled for genomic DNA extraction (Epicentre MasterPure Yeast Kit; MPY80200). The genomic DNA was prepared for Illumina whole-genome sequencing using the Illumina TruSeqKkit (FC-121-3001) and sequenced by 150-bp paired-end reads on the MiSeq platform.
# To determine mutations in the drug-resistant mutants, read quality analysis was performed using FastQC (www.bioinformatics.babraharm.ac.uk/projects/fastqc/). Short reads were examined for quality and trimmed at the 3′ end when average base quality in a 3-nt window fell below Q30. Short reads were mapped to the standard S. cerevisiae reference genome, strain S288c (obtained from the National Center for Biotechnology Information RefSeq repository), using Burrows-Wheeler Alignment (BWA version 0.6.2) (Li et al. 2009) using the default parameters, with the exception of the fraction of missing alignments threshold, which was set at 0.08 (−n in bwa aln). […]
compound,measurement,setting,value
"COc1cc(/C=C/c2cc(/C=C/C(=O)O)cc(OC)c2O)ccc1O [poacic acid, (E)-4-Hydroxy-3-{2-[(E)-4-hydroxy-3-methoxystyryl]}-5-methoxycinnamic acid]",resistance compared with the control strain,PAr mutant with SNP in SUR1,increased resistance
same,colony formation on agar,"spontaneous chain-termination mutant in SUR1, agar with 500 μg poacic acid/mL",able to form colonies

# Source: patent publication US11985974B2, “Antimicrobial ferulic acid derivatives and uses thereof” (WISCONSIN ALUMNI RESEARCH FOUNDATION, priority 2014, dated 2024)
